# Earlier results as cited in US20160038452A1, “Methods for Administering a Depot of Disulfiram” (priority 2014, published 2016).
# Tests used:
# [1] = deep intramuscular injection, compared with patients on oral disulfiram
smiles,measurement,setting,value
CCN(CC)C(=S)SSC(=S)N(CC)CC [disulfiram],half-life of disulfiram in blood,,4 min
same,urinary levels of disulfiram metabolites,[1],insignificant
